Results taken from the supplement of paper PMC7796163.
± gives the uncertainty stated by the source.

Assays:
Test in all cases: CYP enzyme activity (probe substrate metabolite formation) fold change vs solvent control; higher = stronger induction of CYP activity
Settings in all cases: HepaRG
CYP3A4 = CYP3A4 (UniProt P08684)
Protocol: (§1)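 Differentiated HepaRG cells were treated with 1, 5 or 10 µM of each PAH (0.5% DMSO) for 12, 24 or 48 h, then incubated for 3 h at 37 °C with a cocktail of isoform-specific CYP substrates (phenacetin for CYP1A2, bupropion for CYP2B6, amodiaquine for CYP2C8, tolbutamide for CYP2C9, mephenytoin for CYP2C19, propafenone for CYP2D6, atorvastatin for CYP3A4). Metabolite formation was quantified by LC-MS as a measure of CYP activity and reported as fold change over solvent control (mean ± SD, n=3). Values below the LLOQ were set to half the LLOQ.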

CYP2C19 = CYP2C19 (UniProt P33261)
Protocol: as §1

CYP2C9 = CYP2C9 (UniProt P11712)
Protocol: as §1

CYP1A2 = target: T1, CYP1A2 (UniProt P05177)
T1 sequence (whole entry): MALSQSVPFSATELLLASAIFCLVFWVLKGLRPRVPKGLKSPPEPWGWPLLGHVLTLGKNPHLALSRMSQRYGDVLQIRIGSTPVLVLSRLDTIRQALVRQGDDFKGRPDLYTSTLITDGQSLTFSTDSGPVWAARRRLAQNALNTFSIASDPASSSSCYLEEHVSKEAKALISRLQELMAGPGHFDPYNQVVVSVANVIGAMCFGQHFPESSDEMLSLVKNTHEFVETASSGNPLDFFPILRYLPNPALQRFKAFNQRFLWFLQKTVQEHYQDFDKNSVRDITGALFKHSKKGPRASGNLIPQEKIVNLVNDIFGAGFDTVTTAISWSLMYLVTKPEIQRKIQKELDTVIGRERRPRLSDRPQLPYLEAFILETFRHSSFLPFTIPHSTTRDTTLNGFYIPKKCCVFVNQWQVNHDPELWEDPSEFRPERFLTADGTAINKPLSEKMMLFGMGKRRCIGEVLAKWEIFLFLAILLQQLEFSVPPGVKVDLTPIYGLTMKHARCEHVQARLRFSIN
Protocol: as §1

CYP2B6 = target: T2, CYP2B6 (UniProt P20813)
T2 sequence (whole entry): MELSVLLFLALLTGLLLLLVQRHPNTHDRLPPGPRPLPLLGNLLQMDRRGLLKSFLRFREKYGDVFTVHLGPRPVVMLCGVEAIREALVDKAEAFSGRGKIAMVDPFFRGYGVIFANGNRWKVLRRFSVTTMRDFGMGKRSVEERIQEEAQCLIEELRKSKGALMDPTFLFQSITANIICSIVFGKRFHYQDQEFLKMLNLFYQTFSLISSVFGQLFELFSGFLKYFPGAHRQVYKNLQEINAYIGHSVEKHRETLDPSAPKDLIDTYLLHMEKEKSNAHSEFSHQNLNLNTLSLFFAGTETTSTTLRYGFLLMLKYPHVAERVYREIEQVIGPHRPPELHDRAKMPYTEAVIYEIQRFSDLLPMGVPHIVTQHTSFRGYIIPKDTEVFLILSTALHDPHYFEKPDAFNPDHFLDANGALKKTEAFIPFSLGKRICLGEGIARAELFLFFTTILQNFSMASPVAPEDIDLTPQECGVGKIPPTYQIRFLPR
Protocol: as §1

CYP2D6 = CYP2D6 (UniProt P10635)
Protocol: as §1

CYP2C8 = target: T3, CYP2C8 (UniProt P10632)
T3 sequence (whole entry): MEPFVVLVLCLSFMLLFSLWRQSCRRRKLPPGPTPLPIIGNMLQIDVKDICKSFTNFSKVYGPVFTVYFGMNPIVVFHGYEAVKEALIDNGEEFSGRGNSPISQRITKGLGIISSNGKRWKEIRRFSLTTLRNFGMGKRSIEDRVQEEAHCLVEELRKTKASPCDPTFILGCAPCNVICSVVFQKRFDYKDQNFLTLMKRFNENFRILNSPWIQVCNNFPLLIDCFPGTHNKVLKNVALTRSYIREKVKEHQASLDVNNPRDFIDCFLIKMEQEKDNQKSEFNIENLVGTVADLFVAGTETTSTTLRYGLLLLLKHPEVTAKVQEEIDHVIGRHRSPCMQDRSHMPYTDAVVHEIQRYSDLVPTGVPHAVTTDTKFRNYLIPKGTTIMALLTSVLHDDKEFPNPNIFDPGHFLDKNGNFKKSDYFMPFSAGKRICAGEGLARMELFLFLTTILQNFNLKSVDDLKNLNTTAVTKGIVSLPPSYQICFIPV
Protocol: as §1

Chain of CYP2C9 (P11712 whole entry): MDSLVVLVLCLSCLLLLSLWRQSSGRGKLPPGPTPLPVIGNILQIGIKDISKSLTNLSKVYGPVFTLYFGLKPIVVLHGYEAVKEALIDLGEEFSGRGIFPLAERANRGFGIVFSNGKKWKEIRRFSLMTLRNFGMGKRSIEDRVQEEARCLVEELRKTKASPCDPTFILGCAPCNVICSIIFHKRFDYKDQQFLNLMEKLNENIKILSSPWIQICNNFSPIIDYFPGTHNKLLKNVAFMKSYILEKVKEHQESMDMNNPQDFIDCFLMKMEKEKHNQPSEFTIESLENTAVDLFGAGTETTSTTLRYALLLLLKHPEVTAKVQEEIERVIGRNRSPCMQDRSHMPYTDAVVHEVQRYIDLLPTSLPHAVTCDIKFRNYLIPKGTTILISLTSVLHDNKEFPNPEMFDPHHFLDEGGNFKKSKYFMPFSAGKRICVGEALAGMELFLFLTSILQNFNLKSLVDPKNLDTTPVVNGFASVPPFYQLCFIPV
Chain of CYP3A4 (P08684 whole entry, canonical isoform): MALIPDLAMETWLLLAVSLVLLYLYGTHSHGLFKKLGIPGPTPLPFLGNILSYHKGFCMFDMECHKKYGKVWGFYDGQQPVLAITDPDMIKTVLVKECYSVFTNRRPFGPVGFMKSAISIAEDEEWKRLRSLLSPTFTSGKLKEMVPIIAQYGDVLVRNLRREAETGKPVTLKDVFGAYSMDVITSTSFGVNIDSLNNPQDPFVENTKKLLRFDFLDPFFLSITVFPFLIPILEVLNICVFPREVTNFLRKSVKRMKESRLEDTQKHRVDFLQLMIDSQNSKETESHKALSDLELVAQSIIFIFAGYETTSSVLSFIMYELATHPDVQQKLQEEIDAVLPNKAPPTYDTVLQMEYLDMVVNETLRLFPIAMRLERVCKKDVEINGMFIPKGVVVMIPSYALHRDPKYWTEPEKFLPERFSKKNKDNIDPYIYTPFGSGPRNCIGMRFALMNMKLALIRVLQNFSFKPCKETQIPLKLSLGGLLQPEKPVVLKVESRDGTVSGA
Chain of CYP2D6 (P10635 whole entry): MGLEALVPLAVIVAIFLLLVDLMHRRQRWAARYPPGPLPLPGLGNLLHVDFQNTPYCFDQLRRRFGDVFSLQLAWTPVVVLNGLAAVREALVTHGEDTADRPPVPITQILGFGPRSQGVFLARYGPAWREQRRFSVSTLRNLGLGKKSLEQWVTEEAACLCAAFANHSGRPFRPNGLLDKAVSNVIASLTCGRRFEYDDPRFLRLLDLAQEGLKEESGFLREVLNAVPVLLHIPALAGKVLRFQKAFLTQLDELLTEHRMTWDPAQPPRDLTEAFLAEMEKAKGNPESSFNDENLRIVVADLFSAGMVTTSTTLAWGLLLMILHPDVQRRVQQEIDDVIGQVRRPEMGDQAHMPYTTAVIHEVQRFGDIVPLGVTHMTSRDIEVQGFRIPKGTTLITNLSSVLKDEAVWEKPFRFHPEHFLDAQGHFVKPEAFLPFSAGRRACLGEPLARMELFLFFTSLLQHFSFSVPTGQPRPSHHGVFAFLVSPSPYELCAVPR
Chain of CYP2C19 (P33261 whole entry): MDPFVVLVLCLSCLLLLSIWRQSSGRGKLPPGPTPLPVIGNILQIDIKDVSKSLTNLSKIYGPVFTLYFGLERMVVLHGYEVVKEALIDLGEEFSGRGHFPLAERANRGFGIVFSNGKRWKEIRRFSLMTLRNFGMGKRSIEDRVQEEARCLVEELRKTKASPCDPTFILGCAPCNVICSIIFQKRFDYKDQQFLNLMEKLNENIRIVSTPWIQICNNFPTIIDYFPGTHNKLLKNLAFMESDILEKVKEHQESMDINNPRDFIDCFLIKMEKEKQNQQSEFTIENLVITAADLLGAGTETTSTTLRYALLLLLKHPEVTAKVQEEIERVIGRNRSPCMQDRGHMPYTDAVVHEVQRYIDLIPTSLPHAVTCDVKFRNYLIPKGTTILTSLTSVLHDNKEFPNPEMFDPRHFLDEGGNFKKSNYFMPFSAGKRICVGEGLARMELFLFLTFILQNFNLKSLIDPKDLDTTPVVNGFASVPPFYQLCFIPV

c1ccc2c(c1)ccc1ccc3ccccc3c12 [benzo[c]phenanthrene]
CYP enzyme activity
Settings | CYP1A2 | CYP2B6 | CYP2C8 | CYP2C9 | CYP2C19 | CYP2D6 | CYP3A4
1 µM, treatment time 12 h | 1.2 ± 0.049 | 1.02 ± 0.17 | 0.945 ± 0.051 | 1 ± 0.12 | 0.916 ± 0.088 | 0.94 ± 0.24 | 0.867 ± 0.084
1 µM, treatment time 24 h | 1.09 ± 0.19 | 1.04 ± 0.22 | 0.9596 ± 0.0094 | 0.961 ± 0.13 | 0.911 ± 0.071 | 0.773 ± 0.029 | 0.843 ± 0.057
1 µM, treatment time 48 h | 0.925 ± 0.032 | 0.921 ± 0.08 | 0.962 ± 0.092 | 0.922 ± 0.044 | 1.04 ± 0.098 | 0.772 ± 0.073 | 0.834 ± 0.058
5 µM, treatment time 12 h | 1.34 ± 0.12 | 1.31 ± 0.13 | 0.947 ± 0.022 | 1.02 ± 0.14 | 1.04 ± 0.074 | 0.992 ± 0.11 | 0.926 ± 0.014
5 µM, treatment time 24 h | 1.28 ± 0.1 | 1.81 ± 0.2 | 1.04 ± 0.064 | 1.15 ± 0.067 | 1.09 ± 0.061 | 1.05 ± 0.059 | 1.002 ± 0.0053
5 µM, treatment time 48 h | 1.28 ± 0.21 | 2.27 ± 0.63 | 1.09 ± 0.081 | 1.28 ± 0.19 | 1.19 ± 0.098 | 1.05 ± 0.13 | 1.13 ± 0.1
10 µM, treatment time 12 h | 1.5 ± 0.24 | 1.27 ± 0.27 | 0.958 ± 0.041 | 1.01 ± 0.17 | 1.03 ± 0.053 | 1.04 ± 0.14 | 0.849 ± 0.017
10 µM, treatment time 24 h | 1.5 ± 0.19 | 2.02 ± 0.19 | 1.13 ± 0.05 | 1.103 ± 0.011 | 1.03 ± 0.096 | 1.13 ± 0.068 | 0.999 ± 0.095
10 µM, treatment time 48 h | 1.46 ± 0.14 | 2.87 ± 0.24 | 1.08 ± 0.066 | 1.21 ± 0.11 | 1.19 ± 0.095 | 1.08 ± 0.097 | 1.2 ± 0.083

c1ccc2c(c1)cc1ccc3cccc4c5ccccc5c2c1c34 [dibenzo[a,l]pyrene]
CYP enzyme activity
Settings | CYP1A2 | CYP2B6 | CYP2C8 | CYP2C9 | CYP2C19 | CYP2D6 | CYP3A4
1 µM, treatment time 12 h | 2.04 ± 0.24 | 0.84 ± 0.17 | 1 ± 0.028 | 0.921 ± 0.14 | 0.768 ± 0.076 | 1.11 ± 0.26 | 0.927 ± 0.19
1 µM, treatment time 24 h | 1.35 ± 0.046 | 0.906 ± 0.085 | 0.987 ± 0.045 | 0.918 ± 0.069 | 0.823 ± 0.092 | 0.798 ± 0.068 | 0.778 ± 0.061
1 µM, treatment time 48 h | 0.763 ± 0.11 | 0.735 ± 0.12 | 0.78 ± 0.12 | 0.804 ± 0.04 | 0.763 ± 0.1 | 0.552 ± 0.026 | 0.619 ± 0.043
5 µM, treatment time 12 h | 1.61 ± 0.79 | 0.611 ± 0.014 | 0.644 ± 0.072 | 0.753 ± 0.051 | 0.741 ± 0.08 | 1.28 ± 0.078 | 0.768 ± 0.1
5 µM, treatment time 24 h | 2.27 ± 0.25 | 1.19 ± 0.091 | 0.714 ± 0.03 | 0.89 ± 0.18 | 0.781 ± 0.056 | 0.791 ± 0.059 | 0.672 ± 0.057
5 µM, treatment time 48 h | 0.603 ± 0.11 | 0.584 ± 0.24 | 0.326 ± 0.078 | 0.472 ± 0.04 | 0.53 ± 0.028 | 0.288 ± 0.097 | 0.385 ± 0.055
10 µM, treatment time 12 h | 0.515 ± 0.046 | 0.313 ± 0.1 | 0.627 ± 0.065 | 0.395 ± 0.13 | 0.469 ± 0.094 | 1.19 ± 0.31 | 0.543 ± 0.053
10 µM, treatment time 24 h | 1.39 ± 0.6 | 1.22 ± 0.34 | 0.639 ± 0.054 | 0.732 ± 0.029 | 0.689 ± 0.043 | 0.789 ± 0.065 | 0.471 ± 0.12
10 µM, treatment time 48 h | 0.286 ± 0.078 | 0.354 ± 0.23 | 0.166 ± 0.048 | 0.233 ± 0.091 | 0.257 ± 0.064 | 0.212 | 0.118 ± 0.07

c1ccc2c(c1)-c1cccc3c1c-2cc1ccccc13 [benzo[b]fluoranthene]
CYP enzyme activity
Settings | CYP1A2 | CYP2B6 | CYP2C8 | CYP2C9 | CYP2C19 | CYP2D6 | CYP3A4
1 µM, treatment time 12 h | 2.68 ± 0.92 | 1.04 ± 0.12 | 0.95 ± 0.059 | 0.95 ± 0.068 | 0.955 ± 0.065 | 1.24 ± 0.26 | 0.857 ± 0.088
1 µM, treatment time 24 h | 1.78 ± 0.26 | 1.23 ± 0.21 | 0.906 ± 0.061 | 0.907 ± 0.047 | 0.885 ± 0.077 | 0.924 ± 0.014 | 0.751 ± 0.05
1 µM, treatment time 48 h | 1.75 ± 0.34 | 0.832 ± 0.04 | 0.908 ± 0.032 | 0.891 ± 0.057 | 0.984 ± 0.12 | 0.763 ± 0.16 | 0.732 ± 0.054
5 µM, treatment time 12 h | 3.81 ± 1.8 | 1.29 ± 0.24 | 0.951 ± 0.12 | 0.978 ± 0.029 | 1.05 ± 0.093 | 1.38 ± 0.062 | 0.925 ± 0.14
5 µM, treatment time 24 h | 9.11 ± 0.86 | 2.08 ± 0.27 | 0.817 ± 0.037 | 0.951 ± 0.093 | 0.951 ± 0.09 | 1.52 ± 0.3 | 0.823 ± 0.044
5 µM, treatment time 48 h | 5.4 ± 0.71 | 1.33 ± 0.17 | 0.717 ± 0.059 | 0.82 ± 0.018 | 0.976 ± 0.013 | 0.934 ± 0.28 | 0.732 ± 0.074
10 µM, treatment time 12 h | 0.947 ± 0.035 | 1.21 ± 0.054 | 0.929 ± 0.079 | 0.939 ± 0.12 | 0.995 ± 0.21 | 1.19 ± 0.13 | 0.875 ± 0.079
10 µM, treatment time 24 h | 13.2 ± 1.1 | 1.71 ± 0.42 | 0.758 ± 0.11 | 0.842 ± 0.071 | 0.876 ± 0.084 | 1.87 ± 0.37 | 0.723 ± 0.029
10 µM, treatment time 48 h | 7.06 ± 0.33 | 1.4 ± 0.22 | 0.444 ± 0.07 | 0.602 ± 0.13 | 0.667 ± 0.11 | 0.823 ± 0.18 | 0.495 ± 0.081
